{"source": "patent US8501205B2", "about": "“Insect repellent composition” (priority 2006, dated 2013)", "key": {"[1]": {"test_system": "host-seeking mosquitoes", "experiment": "Study A Guatemala field trial, human-landing catch on treated lower legs", "assay_type": "in vivo, Psorophora varipes, Aedes Ochlerotatus taeniorhynchus", "excerpt": "Study A—Guatemala Study. The following repellent formulations (% by weight) were used: (1) C15: repellent containing the amounts of ingredients described in Example 1—the PMD obtained from acid modification of Coryinbia citriodora oil, CAS: 42822-86-6, purchased from Chemian Technology Ltd under the trademark Citriodiol®; (2)115: repellent containing the amounts of ingredients described in Example 1—the PMD obtained from Coolact® 38D; (3) T20: containing 20 wt % PMD instead of 15%, obtained from Coolact® 38D; (4) positive control: 15% DEET (N,N-diethyl-meta-toluamide, CAS 134-62-3; Sigma-Aldrich Co.) in ethanol; (5) negative control: mixture of 20% mineral oil and ethanol.\n(§1) Study A and B, Both studies were controlled double blind, human-landing catch design. All solutions were placed in unmarked containers labeled by code. On any one night, human volunteers had both lower legs treated with either one of the PMD/LG candidate repellents or a positive or negative control at a rate of 0.002 ml/cm^2 between the ankle and the knee. Volunteers' leg length and circumference were measured to calculate surface area and the correct dose of treatment was measured using a micropipette, and applied using a latex glove to minimize absorption of material onto the hand of the volunteer. During the human-landing catches, the volunteers wore shorts to the knee, work boots, and a loose bug jacket (ProBuy) to ensure that blood-seeking mosquitoes had access only to their lower legs.\n(§2) The designated locations within the field sites were 10 m from each other and a minimum of 20 m from alternate sources of kairomones such as houses and livestock. As insect repellents act over a distance of less than a meter, and the maximum distance of host attraction of a single human to mosquitoes is 10 m,^29 the design eliminates any “relativity effect” where insects choose between two hosts simultaneously. Mosquitoes were collected from the lower legs of the volunteers once they had settled—without the need to wait for biting—by using a mouth aspirator, flashlight, and a collection vessel. Collection vessels were changed each hour to provide hourly measures of repellency. Umbrellas were also provided, to protect the volunteers from any rain showers that might wash away their repellent.\n(§3) All volunteers were experienced at conducting man-landing catches. A form outlining procedure was given to the volunteers to ensure that they had full understanding of the potential risks of a study of this kind. In addition, each was given chloroquine (Guatemala) or Mefloquine (Peru) prophylaxis in accordance with WHO guidelines.^30 Full ethical clearance was obtained from Universidad del Valle, Guatemala (Study A); and from London School of Hygiene and Tropical Medicine Ethics Board and Instituto Nacional de Salud, Peru (Study B).\nStudy A. The three repellents and two controls were applied to the five volunteers at 1430 hrs, and man-landing catches were performed at the field site for one hour before and after sunset (1730-1930 hrs), when the evening mosquito biting is at its peak as shown by preliminary man-landing catches. The times chosen allowed an assessment of the protection afforded by the repellent over 5 hours while exposing volunteers to bites for only 2 hours. This helped minimize exposure and risk to the collectors. The study was a balanced 5×5 Latin-square design that required each volunteer to test each treatment five times throughout the study over a period of twenty-five nights. Every evening, each individual was allocated one of five treatments, and sat in one of five allocated positions. Consequently, the volunteers changed position every five days.\nMosquitoes were maintained overnight and killed by cooling prior to identification the following morning. Data were normalized using natural log ([…]) and analyzed with General Linear Model (GLM) using Minitab 11.0 for Windows. […]"}, "[2]": {"test_system": "An. darlingi", "conditions": "for 4 hours after application; biting pressure 75 mosquito landings per human-hour; cited from earlier work"}, "[3]": {"test_system": "All mosquitoes", "experiment": "Study B Peru field trial, human-landing catch, all mosquitoes", "assay_type": "in vivo, mosquitoes (86% Anopheles darlingi)", "conditions": "for % P = percentage protection / AM = arithmetic mean mosquito landings/hour / WM = William's mean mosquito landings/hour: All mosquitoes", "excerpt": "(§4) Study B—Peru Study. Repellent formulations (% by weight) were used: (1) “PMD+LG” containing about 16% PMD as indicated in Example 1—PMD obtained from Coolact® 38D; (2) positive control: 20% DEET (Sigma Aldridge) in ethanol (Sigma-Aldrich Co.); (3) negative control: 20% mineral oil (ExxonMobil Corporation) in ethanol.\nas §1, §2, §3\n(§5) Study B. The repellent and two controls were applied at 1600 hrs, and man-landing collections were performed at the field, between 1800 and 2200 hours, as this is the time of peak An. darlingi activity in the area (Chan, A. unpublished data). The times chosen allowed an assessment of the protection afforded by the repellent over to be made of relative protection of the samples for a period of 6 hours while exposing volunteers to bites for only 4 hours. This helped minimize exposure and risk to the collectors. The volunteers took a 15-minute break between 2000 hrs and 2015 hrs. The study was a 3×3 balanced Latin-square design performed using three volunteers over nine nights, with volunteers changing positions every third night. Due to unforeseen circumstances, one of the volunteers was replaced after 4 nights, and this was factored into the statistical analysis.\n(§6) Mosquitoes were maintained overnight and killed by cooling prior to identification the following morning. Data were normalized using natural log ([…]) and analyzed with General Linear Model (GLM) using Minitab 11.0 for Windows. Further testing of individual variables was performed using Kruskal Wallis, as data could not be sufficiently normalized to use one-way Analysis of Variance (ANOVA) due to low collection numbers on repellent-treated individuals."}, "[4]": {"test_system": "Anopheles darlingi", "experiment": "Study B Peru field trial, human-landing catch, Anopheles darlingi", "assay_type": "in vivo", "excerpt": "as §4, §1, §2, §3, §5, §6"}, "[5]": {"conditions": "Mean of 4 and 5 hours post application"}}, "note": "Marks after values point to notes of the source that are not given here.", "data": [{"smiles": "CCN(CC)C(=O)c1cccc(C)c1", "note": "[15% DEET, N,N-diethyl-meta-toluamide]", "values": [{"measurement": "% P = percentage protection", "setting": "[1]; 4 hours post application", "value": 94.52, "unit": "%"}, {"measurement": "WM = William's mean mosquito landings/hour", "setting": "[1]; 4 hours post application", "value": 3.63, "unit": "mosquito landings/hour"}, {"measurement": "AM = arithmetic mean mosquito landings/hour", "setting": "[1]; 4 hours post application, 0.002 ml/cm^2 on lower legs", "value": 6.33, "unit": "mosquito landings/hour"}, {"measurement": "% P = percentage protection", "setting": "[1]; 5 hours post application", "value": 87.85, "unit": "%"}, {"measurement": "AM = arithmetic mean mosquito landings/hour", "setting": "[1]; 5 hours post application", "value": 12.21, "unit": "mosquito landings/hour"}, {"measurement": "WM = William's mean mosquito landings/hour", "setting": "[1]; 5 hours post application", "value": 4.87, "unit": "mosquito landings/hour"}, {"measurement": "% P = percentage protection", "setting": "[1]; [5]", "value": 91.42, "unit": "%"}, {"measurement": "AM = arithmetic mean mosquito landings/hour", "setting": "[1]; [5]", "value": 9.27, "unit": "mosquito landings/hour"}, {"measurement": "WM = William's mean mosquito landings/hour", "setting": "[1]; [5]", "value": "3.60^c mosquito landings/hour"}, {"measurement": "protection from host-seeking mosquitoes", "setting": "[1]; up to five hours after application, biting pressure 108 mosquitoes per man hour", "value": 91, "unit": "%"}, {"measurement": "protection", "setting": "[2]", "value": 85, "unit": "%"}]}, {"smiles": "CCN(CC)C(=O)c1cccc(C)c1", "note": "[20% DEET, N,N-diethyl-meta-toluamide]", "values": [{"measurement": "average protection", "setting": "[3]; 6 hours after application / over the duration of the trial", "value": 62, "unit": "%"}, {"measurement": "% P = percentage protection", "setting": "[3]; 3 hours post application", "value": 65.77, "unit": "%"}, {"measurement": "AM = arithmetic mean mosquito landings/hour", "setting": "[3]; 3 hours post application", "value": 15.22, "unit": "mosquito landings/hour"}, {"measurement": "WM = William's mean mosquito landings/hour", "setting": "[3]; 3 hours post application", "value": 10.59, "unit": "mosquito landings/hour"}, {"measurement": "% P = percentage protection", "setting": "[3]; 4 hours post application", "value": 68.12, "unit": "%"}, {"measurement": "AM = arithmetic mean mosquito landings/hour", "setting": "[3]; 4 hours post application", "value": 19.78, "unit": "mosquito landings/hour"}, {"measurement": "WM = William's mean mosquito landings/hour", "setting": "[3]; 4 hours post application", "value": 16.12, "unit": "mosquito landings/hour"}, {"measurement": "% P = percentage protection", "setting": "[3]; 5 hours post application", "value": 63.80, "unit": "%"}, {"measurement": "AM = arithmetic mean mosquito landings/hour", "setting": "[3]; 5 hours post application", "value": 13.89, "unit": "mosquito landings/hour"}, {"measurement": "WM = William's mean mosquito landings/hour", "setting": "[3]; 5 hours post application", "value": 11.68, "unit": "mosquito landings/hour"}, {"measurement": "% P = percentage protection", "setting": "[3]; 6 hours post application", "value": 52.08, "unit": "%"}, {"measurement": "AM = arithmetic mean mosquito landings/hour", "setting": "[3]; 6 hours post application", "value": 18.44, "unit": "mosquito landings/hour"}, {"measurement": "WM = William's mean mosquito landings/hour", "setting": "[3]; 6 hours post application", "value": 15.28, "unit": "mosquito landings/hour"}, {"measurement": "% P = percentage protection", "setting": "[3]; Mean of 3-6 hours", "value": 63.63, "unit": "%"}, {"measurement": "AM = arithmetic mean mosquito landings/hour", "setting": "[3]; Mean of 3-6 hours", "value": 16.83, "unit": "mosquito landings/hour"}, {"measurement": "WM = William's mean mosquito landings/hour", "setting": "[3]; Mean of 3-6 hours", "value": "13.30^c mosquito landings/hour"}, {"measurement": "% P = percentage protection", "setting": "[4]; 3 hours post application", "value": 56.43, "unit": "%"}, {"measurement": "AM = arithmetic mean mosquito landings/hour", "setting": "[4]; 3 hours post application", "value": 13.56, "unit": "mosquito landings/hour"}, {"measurement": "WM = William's mean mosquito landings/hour", "setting": "[4]; 3 hours post application", "value": 9.59, "unit": "mosquito landings/hour"}, {"measurement": "% P = percentage protection", "setting": "[4]; 4 hours post application", "value": 66.53, "unit": "%"}, {"measurement": "AM = arithmetic mean mosquito landings/hour", "setting": "[4]; 4 hours post application", "value": 18.33, "unit": "mosquito landings/hour"}, {"measurement": "WM = William's mean mosquito landings/hour", "setting": "[4]; 4 hours post application", "value": 14.96, "unit": "mosquito landings/hour"}, {"measurement": "% P = percentage protection", "setting": "[4]; 5 hours post application", "value": 62.21, "unit": "%"}, {"measurement": "AM = arithmetic mean mosquito landings/hour", "setting": "[4]; 5 hours post application", "value": 12.89, "unit": "mosquito landings/hour"}, {"measurement": "WM = William's mean mosquito landings/hour", "setting": "[4]; 5 hours post application", "value": 10.59, "unit": "mosquito landings/hour"}, {"measurement": "% P = percentage protection", "setting": "[4]; 6 hours post application", "value": 51.41, "unit": "%"}, {"measurement": "AM = arithmetic mean mosquito landings/hour", "setting": "[4]; 6 hours post application", "value": 17.22, "unit": "mosquito landings/hour"}, {"measurement": "WM = William's mean mosquito landings/hour", "setting": "[4]; 6 hours post application", "value": 13.59, "unit": "mosquito landings/hour"}, {"measurement": "% P = percentage protection", "setting": "[4]; Mean of 3-6 hours", "value": 61.40, "unit": "%"}, {"measurement": "AM = arithmetic mean mosquito landings/hour", "setting": "[4]; Mean of 3-6 hours", "value": 15.00, "unit": "mosquito landings/hour"}, {"measurement": "WM = William's mean mosquito landings/hour", "setting": "[4]; Mean of 3-6 hours", "value": "12.07^c mosquito landings/hour"}]}]}
